Experimental findings from patent publication US6537948B1, “Uracil compounds and use thereof” (Sumitomo Chemical Company, Limited, priority 2000, dated 2003) are described below.

Each structure is given as a SMILES string.

Data set [1] relates to common cocklebur (Xanthium pensylvanicum). Briefly: Test Example 3: foliar treatment of field. Format: in vivo. To be noted: foliar spray, dosage 16 g/ha, 25 days after application. The protocol: (§1) A plastic pot having longer side of 27 cm, shorter side of 20 cm and depth of 7.5 cm was filled with soil and then seeded with ivyleaf morningglory (Ipomoea hederacea) and common cocklebur (Xanthium pensylvanicum). These test plants were grown in a greenhouse for 10 days. Then, therein, transplanted were common lambsquarters (Chenopodium album), redroot pigweed and giant foxtail (Setaria faberi) which had been seeded and grown for 14 days in a green house in advance. The test plants were further grown in the greenhouse for 8 days. After then, present compound 1-12 was formulated into an emulsifiable concentrate according to Formulation Example 2 and then diluted to the prescribed amount with water containing a spreading agent and the dilution was uniformly sprayed over the foliage of the test plants with a sprayer at a rate of 1000 liters per hectare. After the application, the test plants were grown in the greenhouse for 25 days, and the herbicidal activity was examined.

In data set [2] the test system is common lambsquarters (Chenopodium album). Briefly: Test Example 3: foliar treatment of field. Format: in vivo. To be noted: foliar spray, dosage 16 g/ha, 25 days after application. How it is done: as §1
Data set [3] concerns giant foxtail (Setaria faberi). Briefly: Test Example 3: foliar treatment of field. In kind it is in vivo. To be noted: foliar spray, dosage 16 g/ha, 25 days after application. How it is done:
as §1

Data set [4] relates to ivyleaf morningglory (Ipomoea hederacea). Briefly: Test Example 3: foliar treatment of field. Format: in vivo. To be noted: foliar spray, dosage 16 g/ha, 25 days after application. How it is done:
as §1

Data set [5] relates to redroot pigweed. Briefly: Test Example 3: foliar treatment of field. Format: in vivo, Amaranthus retroflexus. To be noted: foliar spray, dosage 16 g/ha, 25 days after application. How it is done:
as §1

In data set [6] the test system is black nightshade (Solanum nigrum). Briefly: Test Example 4: soil surface treatment of field. Format: in vivo. To be noted: soil surface spray, dosage 250 g/ha, 25 days after application. From the text: (§2) A plastic pot having longer side of 32 cm, shorter side of 22 cm and depth of 8 cm was filled with soil and then seeded with hemp sesbania (Sesbania exaltata), black nightshade (Solanum nigrum), velvetleaf (Abutilon theophrasti), pale smartweed (Polygonum lapathifolium), common lambsquarters (Chenopodium album) and giant foxtail (Setaria faberi). Then, the present compound 1-12 was formulated into an emulsifiable concentrate according to Formulation Example 2 and then diluted to the prescribed amount with water, and the dilution was uniformly sprayed over the surface of the soil with a sprayer at a rate of 1000 liters per hectare. After the application, the test plants were grown in the greenhouse for 25 days, and the herbicidal activity was examined.

The test system of data set [7] is common lambsquarters (Chenopodium album). Briefly: Test Example 4: soil surface treatment of field. In kind it is in vivo. To be noted: soil surface spray, dosage 250 g/ha, 25 days after application.
From the text: as §2

The subject of data set [8] is giant foxtail (Setaria faberi). Briefly: Test Example 4: soil surface treatment of field. Format: in vivo. To be noted: soil surface spray, dosage 250 g/ha, 25 days after application.
From the text: as §2

The subject of data set [9] is hemp sesbania (Sesbania exaltata). Briefly: Test Example 4: soil surface treatment of field. In kind it is in vivo. To be noted: soil surface spray, dosage 250 g/ha, 25 days after application.
From the text: as §2

Data set [10] deals with pale smartweed (Polygonum lapathifolium). Briefly: Test Example 4: soil surface treatment of field. In kind it is in vivo. To be noted: soil surface spray, dosage 250 g/ha, 25 days after application.
From the text: as §2

For data set [11], the system named is velvetleaf (Abutilon theophrasti). Briefly: Test Example 4: soil surface treatment of field. In kind it is in vivo. To be noted: soil surface spray, dosage 250 g/ha, 25 days after application.
From the text: as §2

The test system of data set [12] is giant foxtail (Setaria faberi). Briefly: Test Example 8: foliar spray, herbicidal activity index. Format: in vivo. Set-up: key: “0” means that there was no or little difference in the degree of germination or growth between the treated and the untreated tested plants at the time of examination; “10” means that the test plants died complete or their germination or growth was completely inhibited. To be noted: foliar spray 373 liters per hectare, examined after 4 days, index 0-10. How it is done: (§3) A plastic pot having longer side of 16.5 cm, shorter side of 12 cm and depth of 7 cm was filled with soil and then seeded with large crabgrass (Digitaria sanguinalis), giant foxtail (Setaria faberi) and johnsongrass (Sorghum halepense). These test plants were grown in a greenhouse for 25 days. Then, each of the present compound 2-52 and C was formulated into an emulsifiable concentrate according to Formulation Example 2 and then diluted to the prescribed amount with water containing a spreading agent and the dilution was uniformly sprayed over the foliage of the test plants with a sprayer at a rate of 373 liters per hectare. After the application, the test plants were grown in the greenhouse for 4 days, and the herbicidal activity was examined. (In the Table 14, the test plants are shown as follows.
(§4) Large crabgrass: LC, Giant foxtail: GF, Johnsongrass: J

Data set [13] deals with johnsongrass (Sorghum halepense). Described as above. To be noted: foliar spray 373 liters per hectare, examined after 4 days, index 0-10. In kind it is in vivo. Set-up: key: “0” means that there was no or little difference in the degree of germination or growth between the treated and the untreated tested plants at the time of examination; “10” means that the test plants died complete or their germination or growth was completely inhibited. The protocol: as §3, §4

In data set [14] the test system is large crabgrass (Digitaria sanguinalis). The data set is described as above. Format: in vivo. Set-up: key: “0” means that there was no or little difference in the degree of germination or growth between the treated and the untreated tested plants at the time of examination; “10” means that the test plants died complete or their germination or growth was completely inhibited. To be noted: foliar spray 373 liters per hectare, examined after 4 days, index 0-10. How it is done: as §3, §4

Data set [15] has as its system barnyardgrass (Echinochloa crus-galli). Briefly: Test Example 5: foliar treatment of field. To be noted: foliar spray, dosage 16 g/ha, 6 days after application. In kind it is in vivo. The protocol: (§5) A plastic pot having longer side of 27 cm, shorter side of 20 cm and depth of 7.5 cm was filled with soil and then seeded with ivyleaf morningglory (Ipomoea hederacea) and common cocklebur (Xanthium pensylvanicum). Three days after, barnyardgrass (Echinochloa crus-galli) was seeded therein and grown for 7 days in a greenhouse. Then, therein, transplanted were common lambsquarters (Chenopodium album), redroot pigweed and giant foxtail (Setaria faberi) which had been seeded and grown for 14 days in a green house in advance. The test plants were further grown in the greenhouse for 8 days. After then, present compound 7-7 was formulated into an emulsifiable concentrate according to Formulation Example 2 and then diluted to the prescribed amount with water containing a spreading agent and the dilution was uniformly sprayed over the foliage of the test plants with a sprayer at a rate of 1000 liters per hectare. After the application, the test plants were grown in the greenhouse for 6 days, and the herbicidal activity was examined.

The test system of data set [16] is common cocklebur (Xanthium pensylvanicum). Briefly: Test Example 5: foliar treatment of field. To be noted: foliar spray, dosage 16 g/ha, 6 days after application. Format: in vivo. The protocol: as §5
In data set [17] the test system is common lambsquarters (Chenopodium album). Briefly: Test Example 5: foliar treatment of field. Format: in vivo. To be noted: foliar spray, dosage 16 g/ha, 6 days after application. The protocol:
as §5

The test system of data set [18] is giant foxtail (Setaria faberi). Briefly: Test Example 5: foliar treatment of field. Format: in vivo. To be noted: foliar spray, dosage 16 g/ha, 6 days after application. The protocol: as §5
Data set [19] deals with ivyleaf morningglory (Ipomoea hederacea). Briefly: Test Example 5: foliar treatment of field. Format: in vivo. To be noted: foliar spray, dosage 16 g/ha, 6 days after application. How it is done:
as §5

Data set [20] has as its system redroot pigweed. Briefly: Test Example 5: foliar treatment of field. In kind it is in vivo, Amaranthus retroflexus. To be noted: foliar spray, dosage 16 g/ha, 6 days after application. The protocol: as §5

Take `COC(=O)C(C)Oc1cnc(Oc2cc(-n3c(=O)cc(C(F)(F)F)n(C)c3=O)c(F)cc2Cl)nc1` (stereo not drawn) [Compound 1-12, methyl 2-([2-{2-chloro-4-fluoro-5-[3-methyl-2,6-dioxo-4-(trifluoromethyl)-1,2,3,6-tetrahydropyrimidin-1-yl]phenoxy}pyrimidin-5-yl]oxy)propionate]: the “growth of common cocklebur (herbicidal activity)” value in data set [1] is listed as “completely controlled”. Further, the “growth of common lambsquarters (herbicidal activity)” value in [2] and in data set [7] was “completely controlled” throughout. For the same molecule, the “growth of giant foxtail (herbicidal activity)” value in [3] and in data set [8] was “completely controlled” throughout. Besides, the “growth of ivyleaf morningglory (herbicidal activity)” value in [4] is listed as “completely controlled”. In addition, the “growth of redroot pigweed (herbicidal activity)” value in the data set on redroot pigweed [5] was “completely controlled”. In [6], the “growth of black nightshade (herbicidal activity)” value is given as “completely controlled”. The “growth of hemp sesbania (herbicidal activity)” value in [9] is recorded as “completely controlled”. Moreover, the “growth of pale smartweed (herbicidal activity)” value in [10] is recorded as “completely controlled”. Besides, the “growth of velvetleaf (herbicidal activity)” value in [11] is on record as “completely controlled”.
For the molecule `CC(=O)Nc1cccnc1Oc1cc(-n2c(=O)cc(C(F)(F)F)n(N)c2=O)c(F)cc1Cl` [C, reference compound], the results for the “Herbicidal activity GF” value in data set [12] (dosage 32 g/ha) and in data set [12] (dosage 125 g/ha) were 6 and 9, respectively. Moreover, the “Herbicidal activity J” value in data set [13] (dosage 32 g/ha) is listed as 8; in [13] (dosage 125 g/ha), 10. In addition, the “Herbicidal activity LC” value was determined as 7 in data set [14] (dosage 32 g/ha) and 9 in [14] (dosage 125 g/ha).
Turning to `COC(=O)C(C)Nc1cccnc1Oc1cc(-n2c(=O)cc(C(F)(F)F)n(C)c2=O)c(F)cc1Cl` (stereo not drawn) [Compound 2-52, 2-{2-chloro-4-fluoro-5-[3-methyl-2,6-dioxo-4-(trifluoromethyl)-1,2,3,6-tetrahydropyrimidin-1-yl]phenoxy}-3-{1-(methoxycarbonyl)ethylamino}pyridine], the figures for the “Herbicidal activity GF” value in [12] (dosage 32 g/ha) and in data set [12] (dosage 125 g/ha) were 9 and 10, respectively. In addition, the “Herbicidal activity J” value in data set [13] (dosage 32 g/ha) and in data set [13] (dosage 125 g/ha) was 10 throughout. Further, the “Herbicidal activity LC” value in data set [14] (dosage 32 g/ha) is reported as 9; in data set [14] (dosage 125 g/ha), 10.
On to `COC(=O)COc1ncccc1Oc1cc(-n2c(=O)cc(C(F)(F)F)n(C)c2=O)c(F)cc1Cl` [Compound 7-7, 3-{2-chloro-4-fluoro-5-[3-methyl-2,6-dioxo-4-(trifluoromethyl)-1,2,3,6-tetrahydropyrimidin-1-yl]phenoxy}-2-(methoxycarbonyl)methoxypyridine], for which the melting point – broadly, the temperature, or range, at which the solid turns liquid – is 52.2 °C. Moreover, in data set [15], the “growth of barnyardgrass (herbicidal activity)” value is given as “completely controlled”. Besides, the “growth of common cocklebur (herbicidal activity)” value in [16] is “completely controlled”. The “growth of common lambsquarters (herbicidal activity)” value in data set [17] is reported as “completely controlled”. Moreover, the “growth of giant foxtail (herbicidal activity)” value in data set [18] is listed as “completely controlled”. Also, the “growth of ivyleaf morningglory (herbicidal activity)” value in data set [19] is on record as “completely controlled”. Moreover, the “growth of redroot pigweed (herbicidal activity)” value with redroot pigweed [20] is on record as “completely controlled”.
